According to US20040115167A1, “Drug delivery device and method having coated microprojections incorporating vasoconstrictors” (priority 2002, published 2004):
Read-outs that look alike come from different tables or passages of the source.

How the values were obtained:
hairless guinea pig [1] = details: skin sites monitored visually for 30 minutes
Experimental: (§1) The systems that were applied comprised a coated microprojection array which was adhered to the center of a low density polyethylene (LDPE) 7 cm^2 disc, coated with a propriety adhesive. Two systems were applied to each hairless guinea pig.
(§2) At the time of application, the skin of the flank of the animal was manually stretched bilaterally (opposing forces applied on both sides of the expected application site). System application was performed with an impact applicator which applied a force of 0.4 J. Following application of the systems, the stretching tension was released.
(§3) Half of the systems were applied for 5 seconds and then removed. The second half of the systems were applied for 2 minutes and then removed. Therefore there were four test conditions with each condition having been tested with four system.
Pictures of the application skin sites were taken 2 minutes after removal of the system. The skin sites were monitored visually for 30 minutes for blanching. Bleeding was evaluated visually from the pictures by estimating the percentage of the microprojection puncture sites that were bleeding. Blood flow (mL/min/100 g) was evaluated with a laser Doppler Velocimeter (LDV) at the skin site immediately prior to application of the system and 2 minutes following removal of the system. […]

hairless guinea pig [2] = details: for blood flow at the application site: LDV 2 minutes after removal
Experimental: The Guinea pig albumin was used as a model drug or vaccine. The Guinea pig albumen and epinephrine were dry coated on the microprojections of a microprojection array. A microprojection array having long microprojections (600 microns) were chosen in order to maximize bleeding so that the efficacy of the vasoconstrictor could be more easily evaluated.
An aqueous coating solution containing 200 mg/ml of guinea pig albumin and 50 mg/ml of epinephrine bitartrate was prepared. A control solution was prepared which contained only 200 mg/mL guinea pig albumin in water and no vasoconstrictor. The microprojection arrays that were used a penetration angle of 80°. The penetration angle is defined as the angle between the two upper penetration edges of the microprojection. There were 72 microprojections/cm^2 and the overall area of the microprojection array was 2 cm^2.
One group of arrays were dipped into each solution and the excess was wicked off by briefly contacting the microprojection array with tissue. The microprojection arrays were then allowed to air-dry overnight at room temperature.
as §1, §2, §3
Pictures of the application skin sites were taken 2 minutes after removal of the system. The skin sites were monitored visually for 30 minutes for blanching. Bleeding was evaluated visually from the pictures by estimating the percentage of the microprojection puncture sites that were bleeding. Blood flow (mL/min/100 g) was evaluated with a laser Doppler Velocimeter (LDV) at the skin site immediately prior to application of the system and 2 minutes following removal of the system. For each guinea pig, the blood flow measurement taken prior to system application was subtracted from the second measurement (normalized blood flow).

Q: How did the “time blanching was detectable after removal of the microprojection arrays” value (hairless guinea pig [1]) turn out when `CNC[C@H](O)c1ccc(O)c(O)c1` [epinephrine] was run?
A: about 30 minutes

Q: And the “percentage of microslits that were bleeding” value (hairless guinea pig [2]; 5-second application, 600 micron microprojection array dry coated with guinea pig albumin 200 mg/ml + epinephrine bitartrate 50 mg/ml, pictures 2 minutes after removal)?
A: 20%

Q: What about the “normalized blood flow (erythema at the application site)” value (hairless guinea pig [2]; FIG. 5, baseline blood flow subtracted) of the same compound?
A: minimizes the erythema

Q: And the “blood flow at the application site” value (hairless guinea pig [2]; systems applied for 5 seconds)?
A: 30 mls/min/100 grams

Q: And the “blood flow at the application site” value (hairless guinea pig [2]; systems applied for 2 minutes)?
A: 30 mls/min/100 grams

Q: What about the “percentage of microslits that were bleeding” value (hairless guinea pig [2]; two-minute application, compared with 5-second application, same coated array) of the same compound?
A: little change in the data
